# Source: patent US20230089273A1, “METHODS FOR MATURING AN ARTERIOVENOUS FISTULA” (ALUCENT BIOMEDICAL, INC., priority 2020, published 2023)
# Key:
# [1] = tested on: collagen fibers in AVF medial layer; test: Multiphoton / SHG imaging of collagen fibers in AVF; type: in vivo, rat
# Procedure: Second harmonic generation (SHG) imaging was performed on 5 μm thick formalin-fixed paraffin embedded (FFPE) sections using Leica SP8 Dive with spectral tunable detection. Collagen fiber orientation in the medial layer was analyzed in relationship to the lumen. Each sample was divided into 4 quadrants and the medial layer was examined in each quadrant; the area of examination for each quadrant was 25 μm^2. The same images were used for other collagen morphology using the MIPAR image software analysis.
# [2] = tested on: MMP-2; test: Immunohistochemistry of the AVF: MMP-2; type: in vivo, rat; conditions: 4 weeks
# From the text: (§1) Based on the results from the morphometric analysis in Example 1, the expression level of several molecular targets associated with AVF maturation failure (i.e., MMP2-MMP-9, Ki-67, and IL6) in the AVF vessels at the 4-week time point were selected for further investigation.
# (§2) But excessive fibrosis of the vessel walls due to local inflammation as well as the circumferential arrangement of newly synthesized collagen fibers has shown a positive association with AVF non-maturation (possibly due to decreasing the distensibility of the veins as they go through the arterialization process). MMP-9 is an inflammatory marker, and although MM-2 is usually not considered an inflammatory marker, both metalloproteinases have nearly identical ECM substrates and are important in vascular remodeling. […] Ki-67 is a marker of cell proliferation, which allows assessing the proliferation of vascular wall cells during the AVF development process.
# [3] = tested on: native blood vessels, anastomosis area; test: Fluorescence imaging of vessels after NVS and laser treatment; type: in vivo, rat; conditions: vessels harvested immediately after NVS and laser treatment, FIG. 1E
# Procedure: FIGS. 1C-E show photographs of the surgical procedure described in Example 1. (C) AVF surgery area was incubated with NVS solution for 5 min; (D) NVS was activated by laser at 450 nm for 1 min; (E) Fluorescent images of native blood vessels that are harvested immediately after the NVS and laser treatment. […] Femoral AVFs were created in young Wistar male rats by connecting the femoral artery (side) and femoral vein (end) in the same limb. FIGS. 1A-B show the surgical procedure. Immediately after the blood flow was restored and dilatation of the femoral vein occurred, a 10 μl -drop of a composition comprising 2 mg/ml Compound of Formula (I) in PBS was placed at the AVF perivascularly and incubated for 5 minutes, to allow the Compound of Formula (I) to diffuse into the vascular wall. The Compound of Formula (I) was activated by a 1 minute illumination by 450 nm light. A control group of young Wistar male rats received a 10 μl -drop of phosphate buffered saline and the same light activation. The rats' skin was closed immediately after light activation. FIG. 1C is a photograph of the incubation with NVS, applied perivascularly on the anastomosis to allow the compound to diffuse into the vascular tissue. […] FIG. 1E depicts fluorescence images after following light activation, 2 animals were sacrificed and their vessels observed on a fluorescence microscope at 450 nm excitation for NVS.
# [4] = tested on: Femoral AVFs in young Wistar male rats; test: Rat femoral AVF model, histology and morphometry (VVG); type: in vivo
# Procedure: Femoral AVFs were created in young Wistar male rats by connecting the femoral artery (side) and femoral vein (end) in the same limb. FIGS. 1A-B show the surgical procedure. Immediately after the blood flow was restored and dilatation of the femoral vein occurred, a 10 μl -drop of a composition comprising 2 mg/ml Compound of Formula (I) in PBS was placed at the AVF perivascularly and incubated for 5 minutes, to allow the Compound of Formula (I) to diffuse into the vascular wall. The Compound of Formula (I) was activated by a 1 minute illumination by 450 nm light. A control group of young Wistar male rats received a 10 μl -drop of phosphate buffered saline and the same light activation. The rats' skin was closed immediately after light activation. FIG. 1C is a photograph of the incubation with NVS, applied perivascularly on the anastomosis to allow the compound to diffuse into the vascular tissue. FIG. 1D is a photograph of the small molecule treated area being exposed to 1 minute of illumination with a 450 -nm light source. FIG. 1E depicts fluorescence images after following light activation, 2 animals were sacrificed and their vessels observed on a fluorescence microscope at 450 nm excitation for NVS.
# Rats were euthanized 1 week (early time point, 4 per group) and 4 weeks (later time point, 10 per group) post-AVF creation for histology and morphometry. Verhoeff-Van Gieson (VVG)-stained thin cross-sections were used to measure the area enclosed by internal elastic lamina (IEL), the area of open lumen, and the area of neointimal hyperplasia (NH) by Image J software. Percent open lumen area=open lumen area/IEL-enclosed area×100%. These analyses were done at three locations: the entire AVF, the AVF venous limb, and the AVF arterial limb.
# An unpaired, two-tailed t-test was used to determine the statistical significance between the two treatment groups (no-NVS (i.e., control) vs. NVS (treatment with Compound of Formula (I))) in each of the data sets, with α=0.05.
# [5] = tested on: IL-6; test: Immunohistochemistry of the AVF: IL-6; type: in vivo, rat; conditions: 4 weeks
# From the text: as §1, §2
# [6] = tested on: Ki-67; test: Immunohistochemistry of the AVF: Ki-67; type: in vivo, rat; conditions: entire AVF, 4 weeks
# From the text: as §1, §2
# [7] = tested on: HASMCs; test: Cell death (apoptosis) assay, R&D system kit, HASMC; type: cell-based; conditions: 0.25, 2.5, 25 μg/ml, 5 min, 450 nm light 1 min, D0-D3, FIG. 12B
# Procedure: (§3) Cell death assays used the cell death detection R&D system kit to detect cell death via apoptosis. Cell density was 1×10^5 per well in a 96-well plate for R&D system kit. HUVECs and HASMCs were treated with NVS in different concentrations (0, 0.25, 2.5, and 25 μg/ml) in serum free medium for 5 minutes in the incubator. After removing NVS, cells were washed with serum free medium once, and the plate was refilled with 200 μl serum free medium in each well. Cells were treated using 450 nm light for 1 minute at room temperature, and then serum free medium was removed and each well was refilled with 200 μl of medium supplemented with 10% serum. At 0, 1, 2, and 3 days post-treatment (D0, D1, D2, and D3), cell death assay was performed according to the manufacturer's protocol. Positive controls were cells incubated with hypertonic buffer (10 mM Tris PH 7.4, 400 mM NaCl, 10 mM MgCl2) at 37° C. for 2 hours.
# [8] = tested on: MMP-9; test: Immunohistochemistry of the AVF: MMP-9; type: in vivo, rat; conditions: 4 weeks
# From the text: as §1, §2
# [9] = tested on: HUVECs; test: Cell death (apoptosis) assay, R&D system kit, HUVEC; type: cell-based; conditions: 0.25, 2.5, 25 μg/ml, 5 min, 450 nm light 1 min, D0-D3, FIG. 12A
# Procedure: as §3
# [10] = week 4, trend, not statistically different
smiles,measurement,setting,value
"NCCOCCOCCNc1ccc2c3c(cccc13)C(=O)N(CCOCCOCCN1C(=O)c3cccc4c(NCCOCCOCCN)ccc(c34)C1=O)C2=O [NVS, 2,2′-((ethane-1,2-diylbis(oxy))bis(ethane-2,1-diyl))bis(6-((2-(2-(2-aminoethoxy)ethoxy)ethyl)amino)-1H-benzo[de]isoquinoline-1,3(2H)-dione)]",analyzed regions exhibiting favorable collagen orientation for AVF maturation,"[1]; AVFs at week 4, not statistically significant vs PBS (25%)",58%
same,"collagen shape features (roundness, roughness, eccentricity) vs PBS treated samples",[1]; [10],more defined shape features
same,overall collagen area vs PBS treated samples,[1]; [10],less overall collagen area
same,MMP-2 expression level vs PBS group,[2]; arterial limb,trending lower
same,MMP-2 expression level vs PBS group,[2]; entire AVF,trending lower
same,"MMP-2 area stained positive, fold lower than PBS group","[2]; venous limb, p=0.015, FIG. 8C",1.8 fold
same,penetration into vascular tissue (green fluorescence),[3],penetration throughout the anastomosis area
same,"AVF venous limb % open lumen area, fold larger than control","[4]; 4 weeks, p=0.009, FIG. 6",1.98 fold
same,"AVF venous limb open lumen area, fold larger than control","[4]; 4 weeks, p=0.014, FIG. 6",4.18 fold
same,"entire AVF % open lumen area, fold larger than control","[4]; 4 weeks, p=0.052, FIG. 5",1.49 fold
same,"entire AVF open lumen area, fold larger than control","[4]; 4 weeks, p=0.062, FIG. 5",2.25 fold
same,tolerability of treatment,"[4]; 10 μl drop of 2 mg/ml in PBS perivascular, 5 min, 450 nm light 1 min",tolerated the treatment well
same,venous diameter vs PBS control,[4]; by 4 weeks after AVF creation surgery,enlarged venous diameter
same,"all four morphometric parameters (IEL-enclosed area, neointimal lesion area, open lumen area, % area of open lumen) vs PBS","[4]; entire AVF, 1 week",similar
same,NH (neointimal hyperplasia) area vs control,[4]; regardless of the locations,without significantly affecting
same,"AVF open lumen area, effect of treatment",[4]; summary statement,significantly increased
same,"IL-6 mean gray value, fold lower than PBS group","[5]; arterial limb, p=0.015, FIG. 10C",1.6 fold
same,"IL-6 mean gray value, fold lower than PBS group","[5]; entire AVF, p=0.027, FIG. 10C",1.4 fold
same,IL-6 expression level vs PBS group,[5]; venous limb,trending lower
same,Ki-67 expression level vs PBS group,[6],similar
same,cell death via apoptosis,[7],minimal cell death
same,"MMP-9 % area stained positive, fold lower than PBS group","[8]; arterial limb, p=0.036, FIG. 9D",2.4 fold
same,MMP-9 expression level vs PBS group,[8]; entire AVF,trending lower
same,"MMP-9 % area stained positive, fold lower than PBS group","[8]; venous limb, p=0.019, FIG. 9D",1.8 fold
same,cell death via apoptosis,[9],minimal cell death
